Laboratory results as given in patent publication US10077261B2, “Imidazolin-5-one derivative useful as FASN inhibitors for the treatment of cancer” (Janssen Pharmaceutica NV, priority 2012, dated 2018).

How the values were obtained:
[1] = molecular target: Fatty Acid Synthase Keto-reductase Domain (FASN KR) (Homo sapiens, UniProt P49327); assay: Fatty Acid Synthase keto-reductase domain (FASN KR) inhibition, NADPH oxidation at 340 nm
Method: After 20 minutes incubation at room temperature the plate was measured again (T2).
The decrease in absorbance was calculated as (Absorbance before incubation T1)−(Absorbance following incubation T2).
A plot of Controlmin versus test compound concentration was fitted to a 4-parameter logistic curve using a non-linear least squares regression method.

A2780 ovarian cells [2] = assay: A2780 ovarian cell proliferation assay in lipid reduced medium, without palmitate (MTT); format: cell-based; conditions: Homo sapiens, A2780, 96 h; read-out: pIC50 A2780 Ovarian Cell, Without Palmitate (converted)
[3] = molecular target: T1, hFASN enzyme (full length) (Homo sapiens, UniProt P49327); assay: Fatty Acid Synthase (FASN) inhibition scintillation proximity assay; format: biochemical; conditions: for inhibition at 10 µM: read-out: Human FASN % inhibition @ 10 μM, 10 μM test compound; for IC50: read-out: Human FASN pIC50 (converted)
T1 construct: 10 μL hFASN enzyme (full length, 300 ng, purified in house); made in house
T1 sequence (P49327 whole entry): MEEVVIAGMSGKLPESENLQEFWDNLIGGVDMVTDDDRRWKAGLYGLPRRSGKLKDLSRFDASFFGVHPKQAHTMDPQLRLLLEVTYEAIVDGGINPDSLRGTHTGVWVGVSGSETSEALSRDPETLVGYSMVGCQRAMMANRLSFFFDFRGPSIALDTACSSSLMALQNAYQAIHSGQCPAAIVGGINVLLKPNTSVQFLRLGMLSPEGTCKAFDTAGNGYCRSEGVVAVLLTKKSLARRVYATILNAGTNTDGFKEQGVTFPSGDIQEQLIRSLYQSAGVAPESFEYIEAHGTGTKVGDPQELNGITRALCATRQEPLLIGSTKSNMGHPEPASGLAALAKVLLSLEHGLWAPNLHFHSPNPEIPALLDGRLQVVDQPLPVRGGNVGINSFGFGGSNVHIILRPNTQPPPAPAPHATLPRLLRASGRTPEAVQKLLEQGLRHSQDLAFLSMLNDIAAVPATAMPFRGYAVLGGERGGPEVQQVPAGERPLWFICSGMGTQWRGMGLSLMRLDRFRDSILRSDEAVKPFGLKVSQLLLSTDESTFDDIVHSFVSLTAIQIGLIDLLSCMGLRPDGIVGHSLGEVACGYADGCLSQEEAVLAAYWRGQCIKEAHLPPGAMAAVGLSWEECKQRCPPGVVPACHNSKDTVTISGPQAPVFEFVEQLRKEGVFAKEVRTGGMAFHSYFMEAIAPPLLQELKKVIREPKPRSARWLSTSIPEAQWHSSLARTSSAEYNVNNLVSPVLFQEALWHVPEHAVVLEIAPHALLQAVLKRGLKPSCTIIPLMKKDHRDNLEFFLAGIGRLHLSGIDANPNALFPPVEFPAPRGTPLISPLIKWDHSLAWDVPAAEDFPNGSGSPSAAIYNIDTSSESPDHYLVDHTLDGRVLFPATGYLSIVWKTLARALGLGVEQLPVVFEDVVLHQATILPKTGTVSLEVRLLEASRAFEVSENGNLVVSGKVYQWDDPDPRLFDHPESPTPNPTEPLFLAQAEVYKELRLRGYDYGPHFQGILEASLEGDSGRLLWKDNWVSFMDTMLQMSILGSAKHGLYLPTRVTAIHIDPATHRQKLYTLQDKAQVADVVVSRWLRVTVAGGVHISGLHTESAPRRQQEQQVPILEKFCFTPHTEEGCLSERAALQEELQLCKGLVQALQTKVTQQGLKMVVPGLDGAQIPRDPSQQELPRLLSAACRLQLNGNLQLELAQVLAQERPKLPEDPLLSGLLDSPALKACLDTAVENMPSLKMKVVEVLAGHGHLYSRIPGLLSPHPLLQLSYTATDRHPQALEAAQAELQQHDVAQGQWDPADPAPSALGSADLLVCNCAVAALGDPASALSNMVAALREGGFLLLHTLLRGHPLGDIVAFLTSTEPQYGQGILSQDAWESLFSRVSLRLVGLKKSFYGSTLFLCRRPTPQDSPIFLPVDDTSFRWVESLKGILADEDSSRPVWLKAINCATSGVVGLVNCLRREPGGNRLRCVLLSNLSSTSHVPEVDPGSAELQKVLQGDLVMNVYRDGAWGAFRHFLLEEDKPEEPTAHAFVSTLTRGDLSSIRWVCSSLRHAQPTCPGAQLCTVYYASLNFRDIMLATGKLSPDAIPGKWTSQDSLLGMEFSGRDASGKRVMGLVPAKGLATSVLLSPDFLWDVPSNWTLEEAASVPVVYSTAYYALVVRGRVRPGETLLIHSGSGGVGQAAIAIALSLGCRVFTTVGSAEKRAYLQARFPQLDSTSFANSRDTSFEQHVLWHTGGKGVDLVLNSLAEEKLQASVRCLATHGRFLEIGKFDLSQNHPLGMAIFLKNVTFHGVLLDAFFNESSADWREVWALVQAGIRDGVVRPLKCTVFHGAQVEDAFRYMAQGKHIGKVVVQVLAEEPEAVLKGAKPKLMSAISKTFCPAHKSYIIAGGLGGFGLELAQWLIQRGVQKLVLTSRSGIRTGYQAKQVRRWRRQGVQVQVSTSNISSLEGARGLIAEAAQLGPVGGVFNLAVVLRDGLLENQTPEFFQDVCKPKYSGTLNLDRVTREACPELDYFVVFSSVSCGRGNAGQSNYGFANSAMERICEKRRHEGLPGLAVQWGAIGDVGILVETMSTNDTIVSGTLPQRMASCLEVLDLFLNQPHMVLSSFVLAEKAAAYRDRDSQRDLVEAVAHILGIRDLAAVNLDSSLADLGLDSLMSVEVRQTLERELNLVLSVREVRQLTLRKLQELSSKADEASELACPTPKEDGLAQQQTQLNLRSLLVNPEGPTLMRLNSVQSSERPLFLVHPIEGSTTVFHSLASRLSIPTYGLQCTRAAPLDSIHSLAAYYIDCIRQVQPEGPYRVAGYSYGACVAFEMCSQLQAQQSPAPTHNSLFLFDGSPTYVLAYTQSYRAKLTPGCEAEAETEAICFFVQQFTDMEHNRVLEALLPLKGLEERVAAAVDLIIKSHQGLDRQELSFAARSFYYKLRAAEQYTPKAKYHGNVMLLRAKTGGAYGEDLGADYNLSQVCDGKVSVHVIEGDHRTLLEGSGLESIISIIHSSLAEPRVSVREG
How it was run: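 Purified full-length hFASN (300 ng) converts ^3H-acetyl-CoA plus malonyl-CoA to ^3H-palmitate in 100 mM KH2PO4 pH 7.5, 1 mM DTT; compounds tested at 0.01–30 μM. Product captured on streptavidin imaging beads and read by LEADseeker at 610 nm after ≥24 h; 4-parameter logistic fit versus controls.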

[4] = tested on: PC-3M-Luc-C6 prostate cells; assay: In vitro PC-3M-Luc-C6 prostate cell proliferation assay in lipid reduced medium; format: cell-based; conditions: 96 h, read-out: pIC50 PC-3M-Luc-C6 prostate cell (converted)
[5] = tested on: LNCaP-Vancouver prostate cells; assay: In vitro LNCaP Vancouver prostate cell proliferation assay in lipid reduced medium; format: cell-based; conditions: read-out: pIC50 LNCaP_Vancouver prostate cell (converted)
A2780 ovarian cells [6] = assay: A2780 ovarian cell proliferation assay in lipid reduced medium, with palmitate (MTT); format: cell-based; conditions: Homo sapiens, A2780, 96 h; read-out: pIC50 A2780 Ovarian Cell, With Palmitate (converted)
How it was run: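 Seeded cells were switched next day to lipid-reduced serum, exposed to compound and 25 μM palmitate complexed with fatty-acid-free BSA, and incubated 96 h. Proliferation was then determined by MTT absorbance at 544 nm, with a best-fit curve of signal against concentration.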

Sequence of Fatty Acid Synthase Keto-reductase Domain (FASN KR) (P49327 whole entry, the tested form may be a part): as the sequence (P49327 whole entry) above

SMILES | IC50 [1] [nM] | IC50 (A2780 ovarian cells [2]) [nM] | inhibition at 10 µM [3] [%] | IC50 [3] [nM] | IC50 [4] [nM] | IC50 [5] [nM] | IC50 (A2780 ovarian cells [6]) [nM]
O=C(C1CC1)N1CC(CN2C(=O)C3(CC3)N=C2c2ccc(-c3cccc(SC4CC4)c3)cc2F)C1 [compound 645, 6-{[1-(Cyclopropylcarbonyl)azetidin-3-yl]methyl}-5-[3′-(cyclopropylsulfanyl)-3-fluorobiphenyl-4-yl]-4,6-diazaspiro[2.4]hept-4-en-7-one] | 676 | ~2040 | 100 | 275 | 1740 | 3470 | > 10000
O=C(C1CC1)N1CC[C@@H](CN2C(=O)C3(CC3)N=C2c2ccc(-c3cccc(S(=O)(=O)C4CC4)c3)cc2F)C1 [compound 647, 6-{[(3R)-1-(Cyclopropylcarbonyl)pyrrolidin-3-yl]methyl}-5-[3′-(cyclopropylsulfonyl)-3-fluorobiphenyl-4-yl]-4,6-diazaspiro[2.4]hept-4-en-7-one] | 1380 | 1950 | 91 | 631 | 1740 | 5130 | > 10000
O=C(C1CC1)N1CC(CN2C(=O)C3(CC3)N=C2c2ccc(-c3nc4ccc(Cl)cc4o3)cc2F)C1 [compound 649, 5-[4-(6-Chloro-1,3-benzoxazol-2-yl)-2-fluorophenyl]-6-{[1-(cyclopropylcarbonyl)azetidin-3-yl]methyl}-4,6-diazaspiro[2.4]hept-4-en-7-one] | 372 | 200 | 97 | 158 | 437 | 1740 | 7410
O=C(C1CC1)N1CC[C@@H](CN2C(=O)C3(CCOCC3)N=C2c2ccc(-c3ccc4cccnc4c3)cc2)C1 [compound 661, 3-{[(3R)-1-(Cyclopropylcarbonyl)pyrrolidin-3-yl]methyl}-2-(4-quinolin-7-ylphenyl)-8-oxa-1,3-diazaspiro[4.5]dec-1-en-4-one] | 132 | 42.7 | 95 | 58.9 | ~79.4 | 191 | > 10000
CC(O)C(=O)N1CC[C@@H](CN2C(=O)C3(CCOCC3)N=C2c2ccc(-c3ccc4cccnc4c3)cc2)C1 (stereo partly drawn) [compound 662, 3-{[(3R)-1-(2-Hydroxypropanoyl)pyrrolidin-3-yl]methyl}-2-(4-quinolin-7-ylphenyl)-8-oxa-1,3-diazaspiro[4.5]dec-1-en-4-one] | 617 | 457 | 98 | 302 | 708 | 2880 | > 10000
O=C(N1CCCC1)N1CC[C@@H](CN2C(=O)C3(CCOCC3)N=C2c2ccc(-c3ccc4cccnc4c3)cc2)C1 [compound 665, 3-{[(3S)-1-(Pyrrolidin-1-ylcarbonyl)pyrrolidin-3-yl]methyl}-2-(4-quinolin-7-ylphenyl)-8-oxa-1,3-diazaspiro[4.5]dec-1-en-4-one] | 631 | 550 | 94 | 324 | 794 | 1230 | > 10000
Cn1cc(-c2ccc(-c3ccc(C4=NC5(CCOC5)C(=O)N4C[C@@H]4CCN(C(=O)[C@H]5CCCO5)C4)cc3)cc2)cn1 (stereo partly drawn) [compound 678, 2-[4′-(1-Methyl-1H-pyrazol-4-yl)biphenyl-4-yl]-3-({(3R)-1-[(2R)-tetrahydro-furan-2-ylcarbonyl]pyrrolidin-3-yl}methyl)-7-oxa-1,3-diazaspiro[4.4]non-1-en-4-one] | 832 | 676 | 95 | 372 | 891 | 3310 | > 10000

Next, values leading:

IC50 [1] [nM] | IC50 (A2780 ovarian cells [2]) [nM] | inhibition at 10 µM [3] [%] | IC50 [3] [nM] | IC50 [4] [nM] | IC50 [5] [nM] | IC50 (A2780 ovarian cells [6]) [nM] | SMILES
1380 | 794 | 91 | 295 | 1380 | 4900 | > 10000 | CC(O)C(=O)N1CC[C@@H](CN2C(=O)C3(CCOC3)N=C2c2ccc(-c3ccc4cccnc4c3)cc2)C1 (stereo partly drawn) [compound 681, 3-{[(3R)-1-(2-Hydroxypropanoyl)pyrrolidin-3-yl]methyl}-2-(4-quinolin-7-ylphenyl)-7-oxa-1,3-diazaspiro[4.4]non-1-en-4-one]
182 | 117 | 96 | 115 | 219 | 1000 | > 10000 | O=C([C@H]1CCCO1)N1CC[C@@H](CN2C(=O)C3(CCOC3)N=C2c2ccc(-c3ccc4cccnc4c3)cc2)C1 (stereo partly drawn) [compound 682, 2-(4-Quinolin-7-ylphenyl)-3-({(3R)-1-[(2R)-tetrahydro-furan-2-ylcarbonyl]pyrrolidin-3-yl}methyl)-7-oxa-1,3-diazaspiro[4.4]non-1-en-4-one]
1620 | 1230 | 84 | 851 | 1170 | 3020 | > 10000 | O=C(N1CCCC1)N1CC[C@@H](CN2C(=O)C3(CCOC3)N=C2c2ccc(-c3ccc4cccnc4c3)cc2)C1 (stereo partly drawn) [compound 685, 3-{[(3S)-1-(Pyrrolidin-1-ylcarbonyl)pyrrolidin-3-yl]methyl}-2-(4-quinolin-7-ylphenyl)-7-oxa-1,3-diazaspiro[4.4]non-1-en-4-one]
457 | 380 | 92 | 251 | 575 | 2630 | > 10000 | O=C(C1CC1)N1CC(CN2C(=O)C3(CCOCC3)N=C2c2ccc(-c3ccc4cccnc4c3)cc2)C1 [compound 698, 3-{[1-(Cyclopropylcarbonyl)azetidin-3-yl]methyl}-2-(4-quinolin-7-ylphenyl)-8-oxa-1,3-diazaspiro[4.5]dec-1-en-4-one]
832 | 468 | 94 | 240 | 1000 | 3390 | > 10000 | O=C([C@H]1CCCO1)N1CC(CN2C(=O)C3(CCOCC3)N=C2c2ccc(-c3ccc4cccnc4c3)cc2)C1 [compound 700, 2-(4-Quinolin-7-ylphenyl)-3-({1-[(2R)-tetrahydro-furan-2-ylcarbonyl]azetidin-3-yl}methyl)-8-oxa-1,3-diazaspiro[4.5]dec-1-en-4-one]
3890 | 891 | 95 | 479 | 1260 | 4570 | > 10000 | O=C(N1CCCC1)N1CC(CN2C(=O)C3(CCOCC3)N=C2c2ccc(-c3ccc4cccnc4c3)cc2)C1 [compound 701, 3-{[1-(Pyrrolidin-1-ylcarbonyl)azetidin-3-yl]methyl}-2-(4-quinolin-7-ylphenyl)-8-oxa-1,3-diazaspiro[4.5]dec-1-en-4-one]
1510 | 933 | 89 | 363 | 794 | 5250 | > 10000 | O=C(C1CC1)N1CC(CN2C(=O)C3(CCOC3)N=C2c2ccc(-c3ccc4cccnc4c3)cc2)C1 (centres unmarked) [compound 714, 3-{[1-(Cycloprppylcarbonyl)azetidin-3-yl]methyl}-2-(4-quinolin-7-ylphenyl)-7-oxa-1,3-diazaspiro[4.4]non-1-en-4-one]
2000 | 1620 | 87 | 676 | 1700 | 5010 | > 10000 | O=C(N1CCCC1)N1CC(CN2C(=O)C3(CCOC3)N=C2c2ccc(-c3ccc4cccnc4c3)cc2)C1 (centres unmarked) [compound 717, 3-{[1-(Pyrrolidin-1-ylcarbonyl)azetidin-3-yl]methyl}-2-(4-quinolin-7-ylphenyl)-7-oxa-1,3-diazaspiro[4.4]non-1-en-4-one]
813 | 1290 | 95 | 309 | 1450 | 8710 | > 10000 | COC(=O)N1CC2(C1)N=C(c1ccc(-c3ccc4cccnc4c3)cc1)N(C[C@@H]1CCN(C(=O)C(C)O)C1)C2=O (stereo partly drawn) [compound 729, Methyl 7-{[(3R)-1-(2-hydroxypropanoyl)pyrrolidin-3-yl]methyl}-8-oxo-6-(4-quinolin-7-ylphenyl)-2,5,7-triazaspiro[3.4]oct-5-ene-2-carboxylate]
537 | ~2510 | 102 | 158 | ~1620 | 2750 | > 10000 | C=CC(=O)N1CCC2(CC1)N=C(c1ccc(-c3ccc4ccoc4c3)cc1)N(C[C@@H]1CCN(C(=O)C3CC3)C1)C2=O [compound 741, 8-Acryloyl-2-[4-(1-benzofuran-6-yl)phenyl]-3-{[(3R)-1-(cyclopropylcarbonyl)pyrrolidin-3-yl]methyl}-1,3,8-triazaspiro[4.5]dec-1-en-4-one]
